Source: PubChem BioAssay (NCI)
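Test compounds were applied to cells in 96-well plates for 48 hours at 5 doses. Here, GI50 denotes the concentration required for 50% inhibition of growth. TGI denotes the concentration required for complete inhibition of growth.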

How the values were obtained:
Assay in all cases: growth of human tumour cells (NCI), 48 h
786-0 renal = test system: 786-0 renal
A498 renal = test system: A498 renal
A549 NSCLC = test system: A549 NSCLC
ACHN renal = test system: ACHN renal
BT-549 breast = test system: BT-549 breast
CCRF-CEM leukemia = test system: CCRF-CEM leukemia
COLO 205 colon = test system: COLO 205 colon
DU-145 prostate = test system: DU-145 prostate
EKVX NSCLC = test system: EKVX NSCLC
HCC-2998 colon = test system: HCC-2998 colon
HCT-116 colon = test system: HCT-116 colon
HCT-15 colon = test system: HCT-15 colon
HL-60(TB) leukemia = test system: HL-60(TB) leukemia
HOP-62 NSCLC = test system: HOP-62 NSCLC
HOP-92 NSCLC = test system: HOP-92 NSCLC
HS 578T breast = test system: HS 578T breast
HT29 colon = test system: HT29 colon
IGROV1 ovarian = test system: IGROV1 ovarian
K-562 leukemia = test system: K-562 leukemia
KM12 colon = test system: KM12 colon
LOX IMVI melanoma = test system: LOX IMVI melanoma
M14 melanoma = test system: M14 melanoma
MALME-3M melanoma = test system: MALME-3M melanoma
MCF7 breast = test system: MCF7 breast
MDA-MB-231 breast = test system: MDA-MB-231 breast
MDA-MB-435 = test system: MDA-MB-435
MOLT-4 leukemia = test system: MOLT-4 leukemia
NCI-H226 lung = test system: NCI-H226 lung
NCI-H23 lung = test system: NCI-H23 lung
NCI-H460 lung = test system: NCI-H460 lung
NCI-H522 lung = test system: NCI-H522 lung
NCI/ADR-RES ovarian = test system: NCI/ADR-RES ovarian
OVCAR-3 ovarian = test system: OVCAR-3 ovarian
OVCAR-4 ovarian = test system: OVCAR-4 ovarian
OVCAR-5 ovarian = test system: OVCAR-5 ovarian
OVCAR-8 ovarian = test system: OVCAR-8 ovarian
PC-3 prostate = test system: PC-3 prostate
RPMI-8226 leukemia = test system: RPMI-8226 leukemia
RXF 393 renal = test system: RXF 393 renal
SF-268 CNS = test system: SF-268 CNS
SF-295 CNS = test system: SF-295 CNS
SF-539 CNS = test system: SF-539 CNS
SK-MEL-2 melanoma = test system: SK-MEL-2 melanoma
SK-MEL-28 melanoma = test system: SK-MEL-28 melanoma
SK-MEL-5 melanoma = test system: SK-MEL-5 melanoma
SK-OV-3 ovarian = test system: SK-OV-3 ovarian
SN12C renal = test system: SN12C renal
SNB-19 CNS = test system: SNB-19 CNS
SNB-75 CNS = test system: SNB-75 CNS
SR leukemia = test system: SR leukemia
SW-620 colon = test system: SW-620 colon
T-47D breast = test system: T-47D breast
TK-10 renal = test system: TK-10 renal
U251 CNS = test system: U251 CNS
UACC-257 melanoma = test system: UACC-257 melanoma
UACC-62 melanoma = test system: UACC-62 melanoma
UO-31 renal = test system: UO-31 renal

With COc1cnc2c(c1)C(=O)c1c-2n(CCCNC(C)C)c(=O)c2cc(F)ccc12 the GI50 (786-0 renal) was 116 nM, the TGI (786-0 renal) was 482 nM and the GI50 (A498 renal) was 199 nM. For the same molecule, the TGI (A498 renal) was 811 nM, the GI50 (A549 NSCLC) was 71.8 nM and the TGI (A549 NSCLC) was 239 nM. The GI50 (ACHN renal) was 56.5 nM, the TGI (ACHN renal) was 229 nM and the GI50 (BT-549 breast) was 655 nM. For the same molecule, the TGI (BT-549 breast) was 4.09 µM, the GI50 (CCRF-CEM leukemia) was 111 nM and the TGI (CCRF-CEM leukemia) was 10.7 µM. It also gave a GI50 (COLO 205 colon) of 90.5 nM, a TGI (COLO 205 colon) of 643 nM and a GI50 (DU-145 prostate) of 210 nM. For the same molecule, the TGI (DU-145 prostate) was 1040 nM, the GI50 (EKVX NSCLC) was 299 nM and the TGI (EKVX NSCLC) was 1730 nM. The GI50 (HCC-2998 colon) was 397 nM, the TGI (HCC-2998 colon) was 1750 nM and the GI50 (HCT-116 colon) was 93 nM. The TGI (HCT-116 colon) was 328 nM, the GI50 (HCT-15 colon) was 163 nM and the TGI (HCT-15 colon) was 1320 nM. It also gave a GI50 (HL-60(TB) leukemia) of 161 nM, a TGI (HL-60(TB) leukemia) of 615 nM and a GI50 (HOP-62 NSCLC) of 107 nM. It also gave a TGI (HOP-62 NSCLC) of 427 nM, a GI50 (HOP-92 NSCLC) of 284 nM and a TGI (HOP-92 NSCLC) of 2540 nM. For the same molecule, the GI50 (HS 578T breast) was 754 nM, the TGI (HS 578T breast) was 5.22 µM and the GI50 (HT29 colon) was 73.1 nM. It also gave a TGI (HT29 colon) of 330 nM, a GI50 (IGROV1 ovarian) of 206 nM and a TGI (IGROV1 ovarian) of 1920 nM. For the same molecule, the GI50 (K-562 leukemia) was 129 nM, the TGI (K-562 leukemia) was 1720 nM and the GI50 (KM12 colon) was 165 nM. It also gave a TGI (KM12 colon) of 851 nM, a GI50 (LOX IMVI melanoma) of 114 nM and a TGI (LOX IMVI melanoma) of 249 nM. The GI50 (M14 melanoma) was 230 nM, the TGI (M14 melanoma) was 1300 nM and the GI50 (MALME-3M melanoma) was 197 nM. For the same molecule, the TGI (MALME-3M melanoma) was 937 nM, the GI50 (MCF7 breast) was 31.8 nM and the TGI (MCF7 breast) was 2080 nM. It also gave a GI50 (MDA-MB-231 breast) of 402 nM, a TGI (MDA-MB-231 breast) of 1570 nM and a GI50 (MDA-MB-435) of 309 nM. It also gave a TGI (MDA-MB-435) of 1480 nM, a GI50 (MOLT-4 leukemia) of 36.2 nM and a TGI (MOLT-4 leukemia) of 267 nM. It also gave a GI50 (NCI-H226 lung) of 146 nM, a TGI (NCI-H226 lung) of 325 nM and a GI50 (NCI-H23 lung) of 176 nM. It also gave a TGI (NCI-H23 lung) of 676 nM, a GI50 (NCI-H460 lung) of 42 nM and a TGI (NCI-H460 lung) of 175 nM. It also gave a GI50 (NCI-H522 lung) of 38.5 nM, a TGI (NCI-H522 lung) of 376 nM and a GI50 (NCI/ADR-RES ovarian) of 234 nM. For the same molecule, the TGI (NCI/ADR-RES ovarian) was 1810 nM, the GI50 (OVCAR-3 ovarian) was 190 nM and the TGI (OVCAR-3 ovarian) was 1030 nM. The GI50 (OVCAR-4 ovarian) was 301 nM, the TGI (OVCAR-4 ovarian) was 1700 nM and the GI50 (OVCAR-5 ovarian) was 277 nM. For the same molecule, the TGI (OVCAR-5 ovarian) was 856 nM, the GI50 (OVCAR-8 ovarian) was 141 nM and the TGI (OVCAR-8 ovarian) was 1280 nM. It also gave a GI50 (PC-3 prostate) of 281 nM, a TGI (PC-3 prostate) of 2550 nM and a GI50 (RPMI-8226 leukemia) of 154 nM. For the same molecule, the TGI (RPMI-8226 leukemia) was 951 nM, the GI50 (RXF 393 renal) was 230 nM and the TGI (RXF 393 renal) was 702 nM. The GI50 (SF-268 CNS) was 207 nM, the TGI (SF-268 CNS) was 1680 nM and the GI50 (SF-295 CNS) was 94.3 nM. It also gave a TGI (SF-295 CNS) of 549 nM, a GI50 (SF-539 CNS) of 245 nM and a TGI (SF-539 CNS) of 703 nM. The GI50 (SK-MEL-2 melanoma) was 510 nM, the TGI (SK-MEL-2 melanoma) was 1920 nM and the GI50 (SK-MEL-28 melanoma) was 940 nM. For the same molecule, the TGI (SK-MEL-28 melanoma) was 2510 nM, the GI50 (SK-MEL-5 melanoma) was 156 nM and the TGI (SK-MEL-5 melanoma) was 496 nM. The GI50 (SK-OV-3 ovarian) was 220 nM, the TGI (SK-OV-3 ovarian) was 707 nM and the GI50 (SN12C renal) was 164 nM. It also gave a TGI (SN12C renal) of 831 nM, a GI50 (SNB-19 CNS) of 179 nM and a TGI (SNB-19 CNS) of 1320 nM. For the same molecule, the GI50 (SNB-75 CNS) was 219 nM, the TGI (SNB-75 CNS) was 1390 nM and the GI50 (SR leukemia) was 75.8 nM. The TGI (SR leukemia) was 839 nM, the GI50 (SW-620 colon) was 122 nM and the TGI (SW-620 colon) was 1330 nM. It also gave a GI50 (T-47D breast) of 84.6 nM, a TGI (T-47D breast) of 651 nM and a GI50 (TK-10 renal) of 178 nM. It also gave a TGI (TK-10 renal) of 623 nM, a GI50 (U251 CNS) of 78.8 nM and a TGI (U251 CNS) of 397 nM. It also gave a GI50 (UACC-257 melanoma) of 470 nM, a TGI (UACC-257 melanoma) of 2070 nM and a GI50 (UACC-62 melanoma) of 271 nM. The TGI (UACC-62 melanoma) was 1270 nM, the GI50 (UO-31 renal) was 80.1 nM and the TGI (UO-31 renal) was 340 nM.
